≈ marks a conversion by molar mass, not a printed value. Like-named read-outs stand apart in the source and are kept apart here.
Test system: pathogenic bacteria
Test: MIC by microdilution broth method (NCCLS M7-A4), in vitro antibacterial activity
Format: cell-based
Method in brief: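 MIC read after 35 °C incubation for 16–20 h relative to drug-free growth wells. Cation-adjusted Mueller-Hinton broth with two-fold compound dilutions, organisms at roughly 5×10^4 CFU/well final. Method follows NCCLS document M7-A4.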

[1] = Staphylococcus aureus, Organism A: Staphylococcus aureus OC4172, read-out: MIC
[2] = Streptococcus pneumoniae, ATCC49619, Organism E: Streptococcus pneumoniae ATCC 49619, read-out: MIC
[3] = Streptococcus pneumoniae, Organism C: fluoroquinolone-resistant clinical isolate of Streptococcus pneumoniae (QRDR amino acid substitutions)
[4] = Streptococcus pneumoniae, Organism D: fluoroquinolone-resistant clinical isolate of Streptococcus pneumoniae (QRDR amino acid substitutions)
[5] = Streptococcus pneumoniae, Organism B: fluoroquinolone-resistant clinical isolate of Streptococcus pneumoniae (QRDR amino acid substitutions)

| SMILES | MIC [1] [µg/mL] | MIC [2] [µg/mL] | MIC [3] [µg/mL] | MIC [4] [µg/mL] | MIC [5] [µg/mL] |
| --- | --- | --- | --- | --- | --- |
| NC/C(F)=C1\CCCN(c2nc3c(cc2F)c(=O)c(C(=O)O)cn3C2CC2)CC1 [Compound 495, (Z)-7-[4-(2-Amino-1-fluoro-ethylidene)-azepan-1-yl]-1-cyclopropyl-6-fluoro-4-oxo-1,4-dihydro-[1,8]naphthyridine-3-carboxylic acid] | 0.25 (≈ 0.618 µM) | 1 (≈ 2.47 µM) | 2 (≈ 4.95 µM) | – | – |
| NC/C(F)=C1/CCCN(c2nc3c(cc2F)c(=O)c(C(=O)O)cn3C2CC2)CC1 [Compound 496, (E)-7-[4-(2-Amino-1-fluoro-ethylidene)-azepan-1-yl]-1-cyclopropyl-6-fluoro-4-oxo-1,4-dihydro-[1,8]naphthyridine-3-carboxylic acid] | 0.25 (≈ 0.618 µM) | 1 (≈ 2.47 µM) | 0.25 (≈ 0.618 µM) | 16 (≈ 39.6 µM) | – |
| NC/C(F)=C1/COCCN(c2nc3c(cc2F)c(=O)c(C(=O)O)cn3C2CC2)C1 [Compound 497, (Z)-7-[6-(2-Amino-1-fluoro-ethylidene)-[1,4]oxazepan-4-yl]-1-cyclopropyl-6-fluoro-4-oxo-1,4-dihydro-[1,8]naphthyridine-3-carboxylic acid] | 1 (≈ 2.46 µM) | 4 (≈ 9.84 µM) | > 16 | > 16 | > 1 |
| NC/C(F)=C1\COCCN(c2nc3c(cc2F)c(=O)c(C(=O)O)cn3C2CC2)C1 [Compound 498, (E)-7-[6-(2-Amino-1-fluoro-ethylidene)-[1,4]oxazepan-4-yl]-1-cyclopropyl-6-fluoro-4-oxo-1,4-dihydro-[1,8]naphthyridine-3-carboxylic acid] | 1 (≈ 2.46 µM) | 16 (≈ 39.4 µM) | > 16 | > 16 | 4 (≈ 9.84 µM) |
| C[C@H]1CN(c2nc3c(cc2F)c(=O)c(C(=O)O)cn3C2CC2)C/C(=C(/F)CN)CO1 [Compound 499, (Z)-7-[6-(2-Amino-1-fluoro-ethylidene)-(2S)-2-methyl-[1,4]oxazepan-4-yl]-1-cyclopropyl-6-fluoro-4-oxo-1,4-dihydro-[1,8]naphthyridine-3-carboxylic acid] | 8 (≈ 19 µM) | > 16 | > 16 | > 16 | > 16 |
| C[C@@H]1CN(c2nc3c(cc2F)c(=O)c(C(=O)O)cn3C2CC2)C/C(=C(/F)CN)CO1 [Compound 500, (Z)-7-[6-(2-Amino-1-fluoro-ethylidene)-(2R)-2-methyl-[1,4]oxazepan-4-yl]-1-cyclopropyl-6-fluoro-4-oxo-1,4-dihydro-[1,8]naphthyridine-3-carboxylic acid] | 2 (≈ 4.76 µM) | 16 (≈ 38.1 µM) | > 16 | > 16 | > 16 |
| NC/C(F)=C1\CCCN(c2cc3c(cc2F)c(=O)c(C(=O)O)cn3C2CC2)CC1 [Compound 501, (Z)-7-[4-(2-Amino-1-fluoro-ethylidene)-azepan-1-yl]-1-cyclopropyl-6-fluoro-4-oxo-1,4-dihydro-quinoline-3-carboxylic acid] | 0.25 (≈ 0.62 µM) | 2 (≈ 4.96 µM) | 8 (≈ 19.8 µM) | 16 (≈ 39.7 µM) | – |
| NC/C(F)=C1/CCCN(c2cc3c(cc2F)c(=O)c(C(=O)O)cn3C2CC2)CC1 [Compound 502, (E)-7-[4-(2-Amino-1-fluoro-ethylidene)-azepan-1-yl]-1-cyclopropyl-6-fluoro-4-oxo-1,4-dihydro-quinoline-3-carboxylic acid] | 0.5 (≈ 1.24 µM) | 4 (≈ 9.92 µM) | 16 (≈ 39.7 µM) | > 16 | 16 (≈ 39.7 µM) |
| NC/C(F)=C1/COCCN(c2cc3c(cc2F)c(=O)c(C(=O)O)cn3C2CC2)C1 [Compound 503, (Z)-7-[6-(2-Amino-1-fluoro-ethylidene)-[1,4]oxazepan-4-yl]-1-cyclopropyl-6-fluoro-4-oxo-1,4-dihydro-quinoline-3-carboxylic acid] | 4 (≈ 9.87 µM) | 16 (≈ 39.5 µM) | > 16 | > 16 | – |
| NC/C(F)=C1\COCCN(c2cc3c(cc2F)c(=O)c(C(=O)O)cn3C2CC2)C1 [Compound 504, (E)-7-[6-(2-Amino-1-fluoro-ethylidene)-[1,4]oxazepan-4-yl]-1-cyclopropyl-6-fluoro-4-oxo-1,4-dihydro-quinoline-3-carboxylic acid] | 2 (≈ 4.93 µM) | 16 (≈ 39.5 µM) | 8 (≈ 19.7 µM) | 4 (≈ 9.87 µM) | – |
| COc1c(N2CCC/C(=C(/F)CN)CC2)c(F)cc2c(=O)c(C(=O)O)cn(C3CC3)c12 [Compound 505, (Z)-7-[4-(2-Amino-1-fluoro-ethylidene)-azepan-1-yl]-1-cyclopropyl-6-fluoro-8-methoxy-4-oxo-1,4-dihydro-quinoline-3-carboxylic acid] | 0.12 (≈ 0.277 µM) | 0.25 (≈ 0.577 µM) | 4 (≈ 9.23 µM) | 1 (≈ 2.31 µM) | – |
| COc1c(N2CCC/C(=C(\F)CN)CC2)c(F)cc2c(=O)c(C(=O)O)cn(C3CC3)c12 [Compound 506, (E)-7-[4-(2-Amino-1-fluoro-ethylidene)-azepan-1-yl]-1-cyclopropyl-6-fluoro-8-methoxy-4-oxo-1,4-dihydro-quinoline-3-carboxylic acid] | ≤ 0.015 | 0.25 (≈ 0.577 µM) | 2 (≈ 4.61 µM) | – | – |
| COc1c(N2CCOC/C(=C(\F)CN)C2)c(F)cc2c(=O)c(C(=O)O)cn(C3CC3)c12 [Compound 507, (Z)-7-[6-(2-Amino-1-fluoro-ethylidene)-[1,4]oxazepan-4-yl]-1-cyclopropyl-6-fluoro-8-methoxy-4-oxo-1,4-dihydro-quinoline-3-carboxylic acid] | 0.06 (≈ 0.138 µM) | 0.25 (≈ 0.574 µM) | 2 (≈ 4.59 µM) | 2 (≈ 4.59 µM) | 0.12 (≈ 0.276 µM) |
| COc1c(N2CCOC/C(=C(/F)CN)C2)c(F)cc2c(=O)c(C(=O)O)cn(C3CC3)c12 [Compound 508, (E)-7-[6-(2-Amino-1-fluoro-ethylidene)-[1,4]oxazepan-4-yl]-1-cyclopropyl-6-fluoro-8-methoxy-4-oxo-1,4-dihydro-quinoline-3-carboxylic acid] | 0.12 (≈ 0.276 µM) | 1 (≈ 2.3 µM) | > 16 | 8 (≈ 18.4 µM) | ≤ 4 |

From patent US20090156577A1, “7-AMINO ALKYLIDENYL-HETEROCYCLIC QUINOLONES AND NAPHTHYRIDONES” (priority 2004, published 2009)
